From US7951802B2, “Use of 7-azaindoles in the inhibition of c-Jun N-terminal kinase” (Eisai R&D Management Co., Ltd., priority 2007, dated 2011)
pIC50: −log10 of the molar value.

Molecular target: JNK3 (Homo sapiens, UniProt P53779)
Experiment: JNK3 SPA assay (phosphorylation of GST-c-Jun)
Format: biochemical
Conditions: 3.33 μM ATP, GST-c-Jun substrate, read-out: IC50 against JNK3
Description: JNK1, JNK2, JNK3—SPA Assay
JNK1, JNK2, JNK3—SPA Assay • 1. Compound is dissolved in DMSO to a convenient concentration and this is diluted in 10% DMSO to a five times concentrate of the desired starting concentration (frequently 1:100). • 2. 10 μl of 500 mM EDTA is added to alternative wells of the Opti-plate row, which will receive kinase reaction plus DMSO. This creates the negative control. • 3. For the JNK2 and JNK3 assay, compounds are prepared in six 2-fold dilutions with water and each concentration is tested in duplicate. For the JNK1 assay compounds are prepared in four 5-fold dilutions with water which are tested in triplicate. Controls are treated identically. • 4. 20 μl per well of each compound concentration is transferred to an Opti-plate, in duplicate. • 5. 30 μl (JNK2/3 SPA) or 50 μl (JNK1 SPA) of substrate solution (25 mM HEPES pH 7.5, 10 mM magnesium acetate with 3.33 μM ATP (JNK2/3) or 2 μM ATP (JNK1), approximately 7.5 kBq [γ-^33P] ATP, GST-c-Jun, in water) is added to each well. • 6. 50 μl (JNK2/3 SPA) or 30 μl (JNK1 SPA) of kinase solution (JNK in 25 mM HEPES pH 7.5, 10 mM Mg Acetate) is added to each well.
• 7. The plate is incubated for 30 minutes at room temperature. • 8. 100 μl of bead/stop solution is added to each well (5 mg/ml glutathione-PVT-SPA beads, 40 mM ATP in PBS). • 9. Plates are sealed and incubated for 30 minutes at room temperature, centrifuged for 10 minutes at 2500 g and counted. • 10. The IC50 values are calculated as the concentration of the compound being tested at which the phosphorylation of c-Jun is decreased to 50% of the control value.

JNK3, sequence (P53779 whole entry, species assumed): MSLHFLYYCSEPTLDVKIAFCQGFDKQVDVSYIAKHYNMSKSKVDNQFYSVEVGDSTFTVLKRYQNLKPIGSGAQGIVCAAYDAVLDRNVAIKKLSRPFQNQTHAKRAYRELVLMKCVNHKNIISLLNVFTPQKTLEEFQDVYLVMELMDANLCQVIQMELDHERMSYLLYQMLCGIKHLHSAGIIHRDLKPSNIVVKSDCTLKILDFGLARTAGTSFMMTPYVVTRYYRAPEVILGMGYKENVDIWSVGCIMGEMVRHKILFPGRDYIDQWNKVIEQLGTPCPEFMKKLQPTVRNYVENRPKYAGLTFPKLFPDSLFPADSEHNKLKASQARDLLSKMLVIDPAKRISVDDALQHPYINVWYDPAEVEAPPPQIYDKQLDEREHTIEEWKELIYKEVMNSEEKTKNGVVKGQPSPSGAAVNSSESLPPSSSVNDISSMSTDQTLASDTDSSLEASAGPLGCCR

| pIC50 | SMILES |
| --- | --- |
| 6.14 | CN1CCC(c2nc(-c3c[nH]c4ncc(C5CCC6(CC5)OCCO6)cc34)cs2)CC1 [Compound I-23, 5-(1,4-Dioxa-spiro[4.5]dec-8-yl)-3-[2-(1-methyl-piperidin-4-yl)-thiazol-4-yl]-1H-pyrrolo[2,3-b]pyridine] |
| 6.08 | Cc1csc(-c2c[nH]c3ncc([C@H]4CC[C@H](N5CCCOCC5)CC4)cc23)n1 [Compound I-117, 4-((1r,4r)-4-(3-(4-methylthiazol-2-yl)-1H-pyrrolo[2,3-b]pyridin-5-yl)cyclohexyl)-1,4-oxazepane] |
| < 5.70 | CN1CCN([C@H]2CC[C@@H](c3cnc4[nH]cc(-c5csc(C6CCCN6C)n5)c4c3)CC2)CC1 (stereo partly shown) [Compound I-110, 4-(5-((1s,4s)-4-(4-methylpiperazin-1-yl)cyclohexyl)-1H-pyrrolo[2,3-b]pyridin-3-yl)-2-(1-methylpyrrolidin-2-yl)thiazole] |
| 5.96 | FC(F)(F)c1csc(-c2c[nH]c3ncc([C@H]4CC[C@@H](N5CCOCC5)CC4)cc23)n1 [Compound I-70, 4-((1s,4s)-4-(3-(4-(trifluoromethyl)thiazol-2-yl)-1H-pyrrolo[2,3-b]pyridin-5-yl)cyclohexyl)morpholine] |
| 6.40 | CC1(C)C=CC(c2cnc3[nH]cc(-c4csc(C(=O)N5CCOCC5)n4)c3c2)=CC1 [Compound I-16, {4-[5-(4,4-Dimethyl-cyclohexa-1,5-dienyl)-1H-pyrrolo[2,3-b]pyridin-3-yl]-thiazol-2-yl}-morpholin-4-yl-methanone] |
| 5.91 | CN1CCCC1c1nc(-c2c[nH]c3ncc([C@H]4CC[C@H](N5CCCOCC5)CC4)cc23)cs1 (stereo partly shown) [Compound I-113, 4-((1r,4r)-4-(3-(2-(1-methylpyrrolidin-2-yl)thiazol-4-yl)-1H-pyrrolo[2,3-b]pyridin-5-yl)cyclohexyl)-1,4-oxazepane] |
| 6.09 | c1nc(-c2c[nH]c3ncc([C@H]4CC[C@H](N5CCOCC5)CC4)cc23)cs1 [Compound I-59, 4-((1r,4r)-4-(3-(thiazol-4-yl)-1H-pyrrolo[2,3-b]pyridin-5-yl)cyclohexyl)morpholine] |
| 5.84 | CN1CCCC1c1nc(-c2c[nH]c3ncc([C@H]4CC[C@@H](N5CCCOCC5)CC4)cc23)cs1 (stereo partly shown) [Compound I-114, 4-((1s,4s)-4-(3-(2-(1-methylpyrrolidin-2-yl)thiazol-4-yl)-1H-pyrrolo[2,3-b]pyridin-5-yl)cyclohexyl)-1,4-oxazepane] |
| 6.64 | CN1CCC(c2nc(-c3c[nH]c4ncc([C@H]5CC[C@H](N6CCN(C)CC6)CC5)cc34)cs2)CC1 [Compound I-96, 4-(5-((1r,4r)-4-(4-methylpiperazin-1-yl)cyclohexyl)-1H-pyrrolo[2,3-b]pyridin-3-yl)-2-(1-methylpiperidin-4-yl)thiazole] |
| < 6.00 | Cc1nc(-c2c[nH]c3ncc([C@H]4CC[C@@H](N5CCN(C)CC5)CC4)cc23)cs1 [Compound I-92, 2-methyl-4-(5-((1s,4s)-4-(4-methylpiperazin-1-yl)cyclohexyl)-1H-pyrrolo[2,3-b]pyridin-3-yl)thiazole] |
| 5.90 | CN1CCCC1c1nc(-c2c[nH]c3ncc([C@H]4CC[C@H](N5CCOCC5)CC4)cc23)cs1 (stereo partly shown) [Compound I-107, 4-((1r,4r)-4-(3-(2-(1-methylpyrrolidin-2-yl)thiazol-4-yl)-1H-pyrrolo[2,3-b]pyridin-5-yl)cyclohexyl)morpholine] |
| 6.16 | FC(F)(F)c1csc(-c2c[nH]c3ncc([C@H]4CC[C@H](N5CCCC5)CC4)cc23)n1 [Compound I-84, 2-(5-((1r,4r)-4-(pyrrolidin-1-yl)cyclohexyl)-1H-pyrrolo[2,3-b]pyridin-3-yl)-4-(trifluoromethyl)thiazole] |
| 7.20 | CN1CCN(C(=O)c2nc(-c3c[nH]c4ncc(C5CCCCC5)cc34)cs2)CC1 [Compound I-10, [4-(5-Cyclohexyl-1H-pyrrolo[2,3-b]pyridin-3-yl)-thiazol-2-yl]-(4-methyl-piperazin-1-yl)-methanone] |
| 6.02 | CN1CCN(C(=O)c2nc(-c3c[nH]c4ncc([C@H]5CC[C@@H](N6CCOCC6)CC5)cc34)cs2)CC1 [Compound I-32, (4-methylpiperazin-1-yl)(4-(5-((1s,4s)-4-morpholinocyclohexyl)-1H-pyrrolo[2,3-b]pyridin-3-yl)thiazol-2-yl)methanone] |
| 6.24 | c1csc(-c2c[nH]c3ncc([C@H]4CC[C@H](N5CCOCC5)CC4)cc23)n1 [Compound I-89, 4-((1r,4r)-4-(3-(thiazol-2-yl)-1H-pyrrolo[2,3-b]pyridin-5-yl)cyclohexyl)morpholine] |
| 6.62 | O=C(c1nc(-c2c[nH]c3ncc(C4CCCCC4)cc23)cs1)N1CCCCC1 [Compound I-7, [4-(5-Cyclohexyl-1H-pyrrolo[2,3-b]pyridin-3-yl)-thiazol-2-yl]-piperidin-1-yl-methanone] |

| pIC50 | SMILES |
| --- | --- |
| 6.60 | O=C(c1nc(-c2c[nH]c3ncc(C4=CCCC4)cc23)cs1)N1CCCCC1 [Compound I-4, [4-(5-Cyclopent-1-enyl-1H-pyrrolo[2,3-b]pyridin-3-yl)-thiazol-2-yl]-piperidin-1-yl-methanone] |
| 6.66 | c1ncc(-c2c[nH]c3ncc([C@H]4CC[C@H](N5CCCOCC5)CC4)cc23)s1 [Compound I-118, 4-((1r,4r)-4-(3-(thiazol-5-yl)-1H-pyrrolo[2,3-b]pyridin-5-yl)cyclohexyl)-1,4-oxazepane] |
| 6.26 | CN1CCC(c2nc(-c3c[nH]c4ncc([C@H]5CC[C@H](N6CCCOCC6)CC5)cc34)cs2)CC1 [Compound I-102, 4-((1r,4r)-4-(3-(2-(1-methylpiperidin-4-yl)thiazol-4-yl)-1H-pyrrolo[2,3-b]pyridin-5-yl)cyclohexyl)-1,4-oxazepane] |
| 6.24 | c1ncc(-c2c[nH]c3ncc(C4CCCCC4)cc23)s1 [Compound I-48, 5-(5-cyclohexyl-1H-pyrrolo[2,3-b]pyridin-3-yl)thiazole] |
| 6.79 | O=C(c1nc(-c2c[nH]c3ncc([C@H]4CC[C@H](N5CCOCC5)CC4)cc23)cs1)N1CCOCC1 [Compound I-34, morpholino(4-(5-((1r,4r)-4-morpholinocyclohexyl)-1H-pyrrolo[2,3-b]pyridin-3-yl)thiazol-2-yl)methanone] |
| 6.28 | CCOc1nc(-c2c[nH]c3ncc([C@H]4CC[C@H](N5CCCOCC5)CC4)cc23)cs1 [Compound I-125, 3-(2-ethoxy-1,3-thiazol-4-yl)-5-[trans-4-(1,4-oxazepan-4-yl)cyclohexyl]-1H-pyrrolo[2,3-b]pyridine] |
| 5.97 | Cc1nc(-c2c[nH]c3ncc([C@H]4CC[C@H](N5CCCOCC5)CC4)cc23)sc1C [Compound I-123, 3-(4,5-dimethyl-1,3-thiazol-2-yl)-5-[trans-4-(1,4-oxazepan-4-yl)cyclohexyl]-1H-pyrrolo[2,3-b]pyridine] |
| < 6.00 | Cc1nc(-c2c[nH]c3ncc([C@H]4CC[C@@H](N5CCCOCC5)CC4)cc23)cs1 [Compound I-76, 4-((1s,4s)-4-(3-(2-methylthiazol-4-yl)-1H-pyrrolo[2,3-b]pyridin-5-yl)cyclohexyl)-1,4-oxazepane] |
| 7.40 | CN1CCN(C(=O)c2nc(-c3c[nH]c4ncc(C5=CCC(C)(C)C=C5)cc34)cs2)CC1 [Compound I-17, {4-[5-(4,4-Dimethyl-cyclohexa-1,5-dienyl)-1H-pyrrolo[2,3-b]pyridin-3-yl]-thiazol-2-yl}-(4-methyl-piperazin-1-yl)-methanone] |
| 5.76 | CN1CCN([C@H]2CC[C@H](c3cnc4[nH]cc(-c5csc(C6CCCN6C)n5)c4c3)CC2)CC1 (stereo partly shown) [Compound I-109, 4-(5-((1r,4r)-4-(4-methylpiperazin-1-yl)cyclohexyl)-1H-pyrrolo[2,3-b]pyridin-3-yl)-2-(1-methylpyrrolidin-2-yl)thiazole] |
| 5.88 | c1csc(-c2c[nH]c3ncc([C@H]4CC[C@@H](N5CCOCC5)CC4)cc23)n1 [Compound I-90, 4-((1s,4s)-4-(3-(thiazol-2-yl)-1H-pyrrolo[2,3-b]pyridin-5-yl)cyclohexyl)morpholine] |
| 6.57 | CN1CCN([C@H]2CC[C@H](c3cnc4[nH]cc(-c5nc(C(F)(F)F)cs5)c4c3)CC2)CC1 [Compound I-82, 2-(5-((1r,4r)-4-(4-methylpiperazin-1-yl)cyclohexyl)-1H-pyrrolo[2,3-b]pyridin-3-yl)-4-(trifluoromethyl)thiazole] |
| 6.05 | COc1nc(-c2c[nH]c3ncc(C4CCCCC4)cc23)cs1 [Compound I-50, 4-(5-cyclohexyl-1H-pyrrolo[2,3-b]pyridin-3-yl)-2-methoxythiazole] |
| 7.05 | c1nc(-c2c[nH]c3ncc(C4CCCCC4)cc23)cs1 [Compound I-49, 4-(5-cyclohexyl-1H-pyrrolo[2,3-b]pyridin-3-yl)thiazole] |
| 6.95 | O=C(c1nc(-c2c[nH]c3ncc(C4CCCCC4)cc23)cs1)N1CCOCC1 [Compound I-8, [4-(5-Cyclohexyl-1H-pyrrolo[2,3-b]pyridin-3-yl)-thiazol-2-yl]-morpholin-4-yl-methanone] |
